According to patent US10112941B2, “Tricyclic compounds as anticancer agents” (BRISTOL-MYERS SQUIBB COMPANY, priority 2013, dated 2018):

target: BRD4 (Homo sapiens, UniProt O60885); assay: Time Resolved Fluorescence Resonance Energy Transfer (TR-FRET) binding assay, BRD4; conditions: one of the FRET assays described; read-out: FRET BRD4 IC50

| SMILES | IC50 |
| --- | --- |
| [2H]C([2H])([2H])c1nnn(C)c1-c1cnc2c3ccc(C(C)(C)O)cc3n(C(c3cc(C)on3)C3CCOCC3)c2c1 (stereo not drawn) [Example 308, 2-{5-[(5-Methyl-1,2-oxazol-3-yl)(oxan-4-yl)methyl]-3-[4-(^2H3)methyl-1-methyl-1H-1,2,3-triazol-5-yl]-5H-pyrido[3,2-b]indol-7-yl}propan-2-ol] | < 5 nM |
| [2H]C([2H])([2H])c1nnn(C)c1-c1cnc2c3ccc(C(C)(C)O)cc3n(C(c3cc(C)on3)C3CCOCC3)c2c1 (stereo not drawn) [Example 309, 2-{5-[(5-Methyl-1,2-oxazol-3-yl)(oxan-4-yl)methyl]-3-[4-(^2H3)methyl-1-methyl-1H-1,2,3-triazol-5-yl]-5H-pyrido[3,2-b]indol-7-yl}propan-2-ol] | < 25 nM |
| [2H]c1c(C([2H])(C2CCOCC2)n2c3cc(C(C)(C)O)ccc3c3ncc(-c4c(C)noc4C([2H])([2H])[2H])cc32)noc1C([2H])([2H])[2H] (stereo not drawn) [Example 327] | < 5 nM |
| [2H]c1c(C([2H])(C2CCOCC2)n2c3cc(C(C)(C)O)ccc3c3ncc(-c4c(C)noc4C([2H])([2H])[2H])cc32)noc1C([2H])([2H])[2H] (stereo not drawn) [Example 328] | < 25 nM |
| [2H]C([2H])([2H])c1nnn(C)c1-c1cnc2c3cc(F)c(C(C)(O)C4CC4)cc3n(C(c3cc(C)on3)C3CCOCC3)c2c1 (stereo not drawn) [Example 329] | < 25 nM |
| [2H]C([2H])([2H])c1nnn(C)c1-c1cnc2c3ccc(S(C)(=O)=O)cc3n(C(c3cc(C)on3)C3CCOCC3)c2c1 (stereo not drawn) [Example 330, 5-{7-Methanesulfonyl-5-[(5-methyl-1,2-oxazol-3-yl)(oxan-4-yl)methyl]-5H-pyrido[3,2-b]indol-3-yl}-4-(^2H3)methyl-1-methyl-1H-1,2,3-triazole] | < 25 nM |
| [2H]C([2H])([2H])c1nnn(C)c1-c1cnc2c3ccc(S(C)(=O)=O)cc3n(C(c3cc(C)on3)C3CCOCC3)c2c1 (stereo not drawn) [Example 331, 5-{7-Methanesulfonyl-5-[(5-methyl-1,2-oxazol-3-yl)(oxan-4-yl)methyl]-5H-pyrido[3,2-b]indol-3-yl}-4-(^2H3)methyl-1-methyl-1H-1,2,3-triazole] | < 5 nM |
| Cc1nnn(C)c1-c1cnc2c3ccc(CS(C)(=O)=O)cc3n([C@H](c3ncccc3F)C3CCOCC3)c2c1 [Example 332] | < 5 nM |
| Cc1nnn(C)c1-c1cnc2c3ccc(CS(C)(=O)=O)cc3n([C@@H](c3ncccc3F)C3CCOCC3)c2c1 [Example 333] | < 5 nM |
| Cc1nnn(C)c1-c1cnc2c3ccc(CS(C)(=O)=O)cc3n([C@@H](c3ccc(Cl)cn3)C3CCOCC3)c2c1 [Example 334] | < 5 nM |
| Cc1nnn(C)c1-c1cnc2c3ccc(CS(C)(=O)=O)cc3n([C@H](c3cc(Cl)ccn3)C3CCOCC3)c2c1 [Example 335] | < 5 nM |
| COc1ccnc([C@H](C2CCOCC2)n2c3cc(CS(C)(=O)=O)ccc3c3ncc(-c4c(C)nnn4C)cc32)c1 [Example 336] | < 5 nM |
| Cc1ccnc([C@H](C2CCOCC2)n2c3cc(CS(C)(=O)=O)ccc3c3ncc(-c4c(C)nnn4C)cc32)c1 [Example 337] | < 5 nM |
| Cc1ccc([C@H](C2CCOCC2)n2c3cc(CS(C)(=O)=O)ccc3c3ncc(-c4c(C)nnn4C)cc32)nc1 [Example 338] | < 5 nM |
| Cc1nnn(C)c1-c1cnc2c3ccc(CS(C)(=O)=O)cc3n([C@H](c3ncccc3Cl)C3CCOCC3)c2c1 [Example 339] | < 5 nM |
| Cc1nnn(C)c1-c1cnc2c3ccc(CS(C)(=O)=O)cc3n([C@@H](c3ncccc3Cl)C3CCOCC3)c2c1 [Example 340] | < 5 nM |
| [2H]C([2H])([2H])c1onc(C)c1-c1cnc2c3ccc(C(C)(C)O)cc3n(C([2H])(c3ccncc3F)C3CCOCC3)c2c1 (stereo not drawn) [Example 343, 2-{5-[(3-Fluoropyridin-4-yl)(oxan-4-yl)(^2H)methyl]-3-[5-(^2H3)methyl-3-methyl-1,2-oxazol-4-yl]-5H-pyrido[3,2-b]indol-7-yl}propan-2-ol] | < 5 nM |
| [2H]C([2H])([2H])c1onc(C)c1-c1cnc2c3ccc(C(C)(C)O)cc3n(C([2H])(c3ccncc3F)C3CCOCC3)c2c1 (stereo not drawn) [Example 344, 2-{5-[(3-Fluoropyridin-4-yl)(oxan-4-yl)(^2H)methyl]-3-[5-(^2H3)methyl-3-methyl-1,2-oxazol-4-yl]-5H-pyrido[3,2-b]indol-7-yl}propan-2-ol] | < 5 nM |
| [2H]C([2H])([2H])c1nnn(C)c1-c1cnc2c3c(OC)cc(C(C)(C)O)cc3n(C(c3ccncc3F)C3CCOCC3)c2c1 (stereo not drawn) [Example 347, 2-{5-[(3-Fluoropyridin-4-yl)(oxan-4-yl)methyl]-9-methoxy-3-[4-(^2H3)methyl-1-methyl-1H-1,2,3-triazol-5-yl]-5H-pyrido[3,2-b]indol-7-yl}propan-2-ol] | < 5 nM |
| [2H]C([2H])([2H])c1nnn(C)c1-c1cnc2c3c(OC)cc(C(C)(C)O)cc3n(C(c3ccncc3F)C3CCOCC3)c2c1 (stereo not drawn) [Example 348, 2-{5-[(3-Fluoropyridin-4-yl)(oxan-4-yl)methyl]-9-methoxy-3-[4-(^2H3)methyl-1-methyl-1H-1,2,3-triazol-5-yl]-5H-pyrido[3,2-b]indol-7-yl}propan-2-ol] | < 5 nM |
| Cc1nnn(C)c1-c1cnc2c3ccc(C(C)(C)F)cc3n([C@H](c3ccccc3)C3CCOCC3)c2c1 [Example 351, 5-[7-(2-Fluoropropan-2-yl)-5-[(S)-oxan-4-yl(phenyl)methyl]-5H-pyrido[3,2-b]indol-3-yl]-1,4-dimethyl-1H-1,2,3-triazole] | < 5 nM |
| Cc1nnn(C)c1-c1cnc2c3ccc(C(C)(C)F)c(F)c3n([C@H](c3ccccc3)C3CCOCC3)c2c1 [Example 352, 5-[6-Fluoro-7-(2-fluoropropan-2-yl)-5-[(S)-oxan-4-yl(phenyl)methyl]-5H-pyrido[3,2-b]indol-3-yl]-1,4-dimethyl-1H-1,2,3-triazole] | < 25 nM |
| COc1cc2c3ncc(-c4c(C)nnn4C)cc3n([C@H](c3ccc(F)cc3)C3CCOCC3)c2cc1C(C)(C)O [Example 353, 2-[3-(Dimethyl-1H-1,2,3-triazol-5-yl)-5-[(S)-(4-fluorophenyl)(oxan-4-yl)methyl]-8-methoxy-5H-pyrido[3,2-b]indol-7-yl]propan-2-ol] | < 5 nM |
| COc1cc2c3ncc(-c4c(C)nnn4C)cc3n([C@H](c3ccccc3)C3CCOCC3)c2cc1C(C)(C)O [Example 354, 2-[3-(Dimethyl-1H-1,2,3-triazol-5-yl)-8-methoxy-5-[(S)-oxan-4-yl(phenyl)methyl]-5H-pyrido[3,2-b]indol-7-yl]propan-2-ol] | < 5 nM |
| COc1c(C(C)(C)O)ccc2c3ncc(-c4c(C)nnn4C)cc3n([C@H](c3ccccc3)C3CCOCC3)c12 [Example 355, 2-[3-(Dimethyl-1H-1,2,3-triazol-5-yl)-6-methoxy-5-[(S)-oxan-4-yl(phenyl)methyl]-5H-pyrido[3,2-b]indol-7-yl]propan-2-ol] | < 5 nM |
| C=C(C)c1ccc2c3ncc(-c4c(C)nnn4C)cc3n([C@H](c3ccccc3)C3CCOCC3)c2c1CO [Example 356, [3-(Dimethyl-1H-1,2,3-triazol-5-yl)-5-[(S)-oxan-4-yl(phenyl)methyl]-7-(prop-1-en-2-yl)-5H-pyrido[3,2-b]indol-6-yl]methanol] | < 5 nM |
| Cc1nnn(C)c1-c1cnc2c3ccc(NC(=O)OCCC(F)(F)F)cc3n([C@H](c3ccccc3)C3CCOCC3)c2c1 [Example 364, 3,3,3-Trifluoropropyl N-[3-(dimethyl-1H-1,2,3-triazol-5-yl)-5-[(S)-oxan-4-yl(phenyl)methyl]-5H-pyrido[3,2-b]indol-7-yl]carbamate] | < 5 nM |
